# Results reported in PMC9878345 (Frontiers in Chemistry, 2023).
# Values joined by “and” are separate entries in the source; they are usually repeats but may differ in a detail not shown here. Identical values can stand only once. Like-named read-outs stand apart in the source and are kept apart here.
# Tests used:
# [1] = molecular target: T1, SARS-CoV-2 PLpro (Severe acute respiratory syndrome coronavirus 2, UniProt P0DTD1); assay: biochemical; format: biochemical; details: for inhibition at 200 µM / inhibition at 50 µM / inhibition at 100 µM: read-out: inhibition of PLpro proteolytic activity; for inhibitory activity towards PLpro proteolytic activity (in words): at the tested concentrations (50, 100, 200 μM); for IC50, PLpro proteolytic activity (Figure 5) / IC50 towards PLpro proteolytic activity / IC50: dose-dependent study; for IC50 towards PLpro proteolytic activity / IC50: 0–100 µM, non-linear regression; for inhibition activity in SARS-CoV-2 PLpro enzymatic activity: concentration not stated
# [2] = system: Vero-E6 cells; assay: Cell viability assay (PrestoBlue); format: cell-based, African green monkey; details: for cytotoxicity (in words): 24, 48, 72 h at 50, 100, 200 µM; for cytotoxicity: at the tested doses and time points
# Description: The cytotoxic effect of selected phytochemicals were carried out with Vero-E6 cells using PrestoBlue™ Cell Viability kit as described earlier ([Lewis et al., 2022]). Briefly, Vero-E6 cells (20,000 cells) were seeded overnight in 96 well plates. Then, 100 µL of complete media (EMEM+10% FBS+1%Pen/Strep) was added to refresh the cells along with 50, 100, and 200 µM selected phytochemicals, and incubation was continued for 24, 48, and 72 hs at 37°C respectively. Cytotoxicity detection regent (PrestoBlue solution) was added and incubated for additional 1h at 37°C. The absorbance was taken at 530/25 excitation and 590/35 nm emission using Bio-Tek Synergy HT fluorescent plate reader.
# [3] = molecular target: T1, SARS-CoV-2 PLpro; assay: biochemical
# [4] = read-out: IC50 towards PLpro proteolytic activity
# [5] = read-out: inhibition of PLpro DUB activity
compound,measurement,setting,value
O=C(/C=C/c1ccc(O)c(O)c1)O[C@H](Cc1ccc(O)c(O)c1)C(=O)O [rosmarinic acid],inhibition at 200 µM,[1],50%
C=CCSSSCC=C [diallyl trisulfide],inhibitory activity towards PLpro proteolytic activity (in words),[1],did not show inhibitory activity
CC1(C)OC(=O)C=C[C@]2(C)[C@H]3CC[C@@]4(C)[C@H](c5ccoc5)OC(=O)[C@H]5O[C@]54[C@]3(C)C(=O)C[C@@H]12 [obacunone],inhibitory activity towards PLpro proteolytic activity (in words),[1],did not show inhibitory activity
O=c1c(-c2ccc(O)cc2)coc2cc(O)ccc12 [daidzein],inhibitory activity towards PLpro proteolytic activity (in words),[1],"none of the tested isoflavone compounds such as daidzein, daidzin, genistein, genistin, and isoflorentin demonstrated an inhibitory effect"
CC(C)=CCc1c(O)cc2oc3cc(O)c(O)c(CC=C(C)C)c3c(=O)c2c1O [γ-mangostin],"IC50, PLpro proteolytic activity (Figure 5)",[1],Ambiguous
same,IC50 towards PLpro proteolytic activity,[1],ambiguous
COc1cc(-c2coc3cc4c(c(OC)c3c2=O)OCO4)cc(OC)c1OC [isoflorentin],inhibitory activity towards PLpro proteolytic activity (in words),[1],"none of the tested isoflavone compounds such as daidzein, daidzin, genistein, genistin, and isoflorentin demonstrated an inhibitory effect"
"O=C(O[C@@H]1Cc2c(O)cc(O)cc2O[C@@H]1c1cc(O)c(O)c(O)c1)c1cc(O)c(O)c(O)c1 [EGCG, epigallocatechin gallate]",cytotoxicity (in words),[2],not c ytotoxic
same,inhibition at 50 µM,"[1]; 50 μM, vs DMSO control",65%
same,inhibition at 100 µM,"[1]; 100 μM, vs DMSO control",81%
same,inhibition at 200 µM,"[1]; 200 μM, vs DMSO control",97%
same,inhibition activity in SARS-CoV-2 PLpro enzymatic activity,[1],more than 50%
same,inhibition at 50 µM,"[3]; 50 μM, vs DMSO control, read-out: inhibition of PLpro DUB activity",70%
same,inhibition at 100 µM,"[3]; 100 μM, vs DMSO control, read-out: inhibition of PLpro DUB activity",90%
same,inhibition at 200 µM,"[3]; 200 μM, vs DMSO control, read-out: inhibition of PLpro DUB activity",95%
evodiamine,inhibitory activity towards PLpro proteolytic activity (in words),[1],only colchicine out of all the tested alkaloids
CN1Cc2c(ccc3c2OCO3)[C@@H]2[C@H]1c1cc3c(cc1C[C@@H]2O)OCO3 [chelidonine],inhibitory activity towards PLpro proteolytic activity (in words),[1],only colchicine out of all the tested alkaloids
"COc1cc2oc3cc(O)c(OC)c(CC=C(C)C)c3c(=O)c2c(O)c1CC=C(C)C [β-mangostin, b-Mangostin]",inhibitory activity towards PLpro proteolytic activity (in words),[1],Only γ-mangostin and mangiferin exhibited more than 50% inhibitory activity
C[C@@H]1O[C@@H](OC[C@H]2O[C@@H](Oc3c(-c4ccc(O)c(O)c4)oc4cc(O)cc(O)c4c3=O)[C@H](O)[C@@H](O)[C@@H]2O)[C@H](O)[C@H](O)[C@H]1O [rutin],cytotoxicity (in words),[2],not c ytotoxic
same,inhibition at 50 µM,[1],70%
same,inhibition at 100 µM,[1],70%
same,inhibition at 200 µM,[1],88%
O[C@H]1[C@H]2c3cc4c(cc3CN3CCC(=C[C@@H]1O)[C@H]23)OCO4 [lycorine],inhibitory activity towards PLpro proteolytic activity (in words),[1],only colchicine out of all the tested alkaloids
O=c1c(O)cc([C@H]2Oc3cc(O)cc(O)c3C[C@H]2O)cc2c([C@H]3Oc4cc(O)cc(O)c4C[C@H]3O)cc(O)c(O)c12 [theaflavin],inhibition at 50 µM,"[1]; 50 μM, vs DMSO control",94%
same,inhibition at 200 µM,"[1]; 200 μM, vs DMSO control",100%
same,inhibition activity in SARS-CoV-2 PLpro enzymatic activity,[1],more than 50%
same,IC50,[1]; [4],7.3 µM
same,inhibition of PLpro DUB activity,"[3]; 50 μM, vs DMSO control",complete inhibition
same,IC50,"[3]; dose-dependent study, 0–100 µM, non-linear regression, read-out: IC50 for PLpro DUB activity",13.2 µM
same,IC50,"[3]; dose-dependent study, read-out: IC50, PLpro DUB activity (Figure 6)",13.2 µM
COc1ccc2cc1Oc1ccc(cc1)C[C@H]1c3cc(c(OC)cc3CCN1C)Oc1c(OC)c(OC)cc3c1[C@H](C2)N(C)CC3 [tetrandrine],inhibitory activity towards PLpro proteolytic activity (in words),[1],only colchicine out of all the tested alkaloids
O=c1c(-c2ccc(O)cc2)coc2cc(O)cc(O)c12 [genistein],inhibitory activity towards PLpro proteolytic activity (in words),[1],"none of the tested isoflavone compounds such as daidzein, daidzin, genistein, genistin, and isoflorentin demonstrated an inhibitory effect"
O=C1C=CC[C@@H]2[C@H]3CCCN4CCC[C@@H](CN12)[C@@H]34 [sophocarpine],inhibitory activity towards PLpro proteolytic activity (in words),[1],only colchicine out of all the tested alkaloids
C/C=C1/[C@H](O[C@@H]2O[C@H](CO)[C@@H](O)[C@H](O)[C@H]2O)OC=C(C(=O)OC)[C@H]1CC(=O)OCCc1ccc(O)c(O)c1 [oleuropein],cytotoxicity,[2],20-30%
same,"IC50, PLpro proteolytic activity (Figure 5)",[1],Ambiguous
same,IC50 towards PLpro proteolytic activity,[1],ambiguous
same,inhibition at 200 µM,[1],60%
same,IC50,[3],132 µM
same,inhibition at 200 µM,[3]; [5],50%
C=C(C)[C@@H]1CC[C@]2(C(=O)O)CC[C@]3(C)[C@H](CC[C@@H]4[C@@]5(C)CC[C@H](O)C(C)(C)[C@@H]5CC[C@]43C)[C@@H]12 [betulinic acid],inhibitory activity towards PLpro proteolytic activity (in words),[1],did not show inhibitory activity
"O=c1c2cc(O)c(O)cc2oc2cc(O)c([C@@H]3O[C@H](CO)[C@@H](O)[C@H](O)[C@H]3O)c(O)c12 [mangiferin, 2-β-D-glucopyranosyl-1,3,6,7-tetrahydroxy-9H-xanthan-9-one]",cytotoxicity (in words),[2],not c ytotoxic
same,IC50,[1]; IC50 towards PLpro proteolytic activity,95.3 µM and 43.4 µM
same,inhibition of PLpro proteolytic activity,[1]; concentration not given,70%
same,inhibition at 200 µM,[1],> 50%
same,IC50,[3],104 µM
same,inhibition at 200 µM,[3]; [5],10 to 30%
CC1(C)[C@@H](O[C@H]2O[C@H](C(=O)O)[C@@H](O)[C@H](O)[C@H]2O[C@@H]2O[C@H](C(=O)O)[C@@H](O)[C@H](O)[C@H]2O)CC[C@]2(C)[C@H]3C(=O)C=C4[C@@H]5C[C@@](C)(C(=O)O)CC[C@]5(C)CC[C@@]4(C)[C@]3(C)CC[C@@H]12 [glycyrrhizic acid],inhibitory activity towards PLpro proteolytic activity (in words),[1],did not show inhibitory activity
O=c1c(-c2ccc(O)cc2)coc2cc(O[C@@H]3O[C@H](CO)[C@@H](O)[C@H](O)[C@H]3O)cc(O)c12 [genistin],inhibitory activity towards PLpro proteolytic activity (in words),[1],"none of the tested isoflavone compounds such as daidzein, daidzin, genistein, genistin, and isoflorentin demonstrated an inhibitory effect"
O=c1c(-c2ccc(O)cc2)coc2cc(O[C@@H]3O[C@H](CO)[C@@H](O)[C@H](O)[C@H]3O)ccc12 [daidzin],inhibitory activity towards PLpro proteolytic activity (in words),[1],"none of the tested isoflavone compounds such as daidzein, daidzin, genistein, genistin, and isoflorentin demonstrated an inhibitory effect"
"C[C@@H]1CC[C@H]2[C@@H](C)C(=O)O[C@@H]3O[C@@]4(C)CC[C@@H]1[C@]32OO4 [artemisinin, reference compound]",inhibitory activity towards PLpro proteolytic activity (in words),[1],did not show inhibitory activity
O.Oc1cc(O)c2c(c1)O[C@H](c1ccc(O)c(O)c1)[C@@H](O)C2 [catechin],inhibition of PLpro proteolytic activity,"[1]; 50 μM, vs DMSO control",25%
same,inhibition of PLpro proteolytic activity,"[1]; 100 μM, vs DMSO control",44%
same,inhibition of PLpro proteolytic activity,"[1]; 200 μM, vs DMSO control",64%
same,IC50,[1]; [4],14.2 µM
same,inhibition of PLpro DUB activity,"[3]; 50 μM, vs DMSO control",30%
same,inhibition of PLpro DUB activity,"[3]; 100 μM, vs DMSO control",40%
same,inhibition of PLpro DUB activity,"[3]; 200 μM, vs DMSO control",50%
"O=c1c(O)c(-c2cc(O)c(O)c(O)c2)oc2cc(O)cc(O)c12 [myricetin, 3,5,7, 3′, 4′, 5′-hexahydroxyflavone]",cytotoxicity,[2],20-30%
C=CCSSCC=C [diallyl disulfide],inhibitory activity towards PLpro proteolytic activity (in words),[1],did not show inhibitory activity
